Holding throughout (format): cell-based
Experiment [1] concerns the target T1, human 5-HT3-A(short) together with 5-HT3-C (Homo sapiens, UniProt P46098).
T1 construct: Characterization of the Function of Protein Encoded by p5HT3CR in Xenopus oocvtes; expressed in transfected cells; host or cells: Xenopus laevis oocytes co-injected with cRNAs
T1 sequence (P46098 24-478): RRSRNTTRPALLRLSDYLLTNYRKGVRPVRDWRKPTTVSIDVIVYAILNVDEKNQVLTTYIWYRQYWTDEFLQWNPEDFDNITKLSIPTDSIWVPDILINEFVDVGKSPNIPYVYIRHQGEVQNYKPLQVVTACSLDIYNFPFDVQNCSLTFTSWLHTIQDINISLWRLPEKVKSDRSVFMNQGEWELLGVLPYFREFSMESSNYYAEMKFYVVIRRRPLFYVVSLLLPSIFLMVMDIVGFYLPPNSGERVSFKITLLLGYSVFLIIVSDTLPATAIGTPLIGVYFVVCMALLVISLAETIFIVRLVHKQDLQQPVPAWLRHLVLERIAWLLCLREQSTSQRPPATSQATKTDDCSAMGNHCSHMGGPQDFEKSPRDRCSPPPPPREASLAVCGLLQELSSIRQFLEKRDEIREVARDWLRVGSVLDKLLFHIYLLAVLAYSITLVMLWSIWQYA
The experiment can be described thus: Two-electrode voltage clamp, oocytes co-injected with 5-HT3-A(short) and 5-HT3-C. As for the experimental part:
(§1) Characterization of the Function of Protein Encoded by p5HT3CR in Xenopus oocvtes Xenopus laevis oocytes were prepared and injected using standard methods previously described and known in the art (Fraser et al., 1993). Ovarian lobes from adult female Xenopus laevis (Nasco, Fort Atkinson, Wis.) were teased apart, rinsed several times in nominally Ca-free saline containing (in mM): NaCl 82.5, KCl 2.5, MgCl2 1, HEPES 5, adjusted to pH 7.0 with NaOH(OR-2), and gently shaken in OR-2 containing 0.2% collagenase Type 1 (ICN Biomedicals, Aurora, Ohio) for 2–5 hours. When approximately 50% of the follicular layers were removed, Stage V and VI oocytes were selected and rinsed in media consisting of 75% OR-2 and 25% ND-96. The ND-96 contained (in mM): NaCl 100, KCl 2, MgCl2 1, CaCl2 1.8, HEPES 5, Na pyruvate 2.5, gentamicin (50 ug/ml), adjusted to pH 7.0 with NaOH. […] For in vitro transcription, pGEM HE (Liman et al., 1992) containing human 5-HT3-A (Genbank D49394) or 5-HT3-C cDNA was linearized with NheI and transcribed with T7 RNA polymerase (Stratagene) in the presence of the cap analog m7G(5′)ppp(5′)G. The synthesized cRNA was purified with a Sephadex G-50 spin column. […] Control oocytes were injected with 50 nl of water. Oocytes were incubated for 2–14 days in ND-96 before analysis for expression of the human 5-HT3-C. Incubations and collagenase digestion were carried out at room temperature. Injected oocytes were maintained in 48 well cell culture clusters (Costar, Cambridge, Mass.) at 18° C. Whole cell agonist-induced currents were measured 1–14 days after injection with a conventional two-electrode voltage clamp (GeneClamp500, Axon Instruments, Foster City, Calif.) using standard methods previously described and known in the art (Dascal, 1987). The microelectrodes were filled with 3 M KCl, which had resistances of 1 and 2 MΩ. Cells were continuously perfused with ND96 at 10 ml/min at room temperature unless indicated. Membrane voltage was clamped at −70 mV unless indicated.
Functional expression of human serotonin 5-HT3 receptor modifier subunit 5-HT3-C together with the human short form of the 5-HT3-A receptor (Genbank accession # D49394) in Xenopus oocytes is shown in FIGS. 4 and 5. Agonist was applied during the time indicated by the horizontal bar above the record. […] As a positive control for translation and surface expression, all oocytes were co-injected with a Shaker potassium channel N-terminal deletion mutant that lacks fast inactivation. […] Oocytes were continuously perfused with Ba^2+ containing ND96 at a rate of 10 ml/min at room temperature. Time scale bar: 25 sec. Similar results were obtained in experiments in which oocytes were bathed in Ca^2+ containing ND96.
A general note: In two-electrode clamp one electrode senses voltage and the other passes current.

Experiment [2] addresses T2, 5-HT3-A receptors (Homo sapiens, UniProt P46098).
T2 sequence (P46098 24-478): T1 sequence (P46098 24-478)
Kind of experiment: FLIPR DiBAC control, cells stably expressing 5-HT3-A receptors. To be noted: control for the DIBAC; increase in fluorescence.

The target of experiment [3] is T3, 5-HT3-B and 5-HT3-C (Homo sapiens, UniProt O95264+Q8WXA8).
T3 construct: Characterization of the Function of Protein Encoded by p5HT3CR in Xenopus oocvtes; expressed in transfected cells; host or cells: Xenopus laevis oocytes co-injected with cRNAs
T3 sequence (O95264 22-441): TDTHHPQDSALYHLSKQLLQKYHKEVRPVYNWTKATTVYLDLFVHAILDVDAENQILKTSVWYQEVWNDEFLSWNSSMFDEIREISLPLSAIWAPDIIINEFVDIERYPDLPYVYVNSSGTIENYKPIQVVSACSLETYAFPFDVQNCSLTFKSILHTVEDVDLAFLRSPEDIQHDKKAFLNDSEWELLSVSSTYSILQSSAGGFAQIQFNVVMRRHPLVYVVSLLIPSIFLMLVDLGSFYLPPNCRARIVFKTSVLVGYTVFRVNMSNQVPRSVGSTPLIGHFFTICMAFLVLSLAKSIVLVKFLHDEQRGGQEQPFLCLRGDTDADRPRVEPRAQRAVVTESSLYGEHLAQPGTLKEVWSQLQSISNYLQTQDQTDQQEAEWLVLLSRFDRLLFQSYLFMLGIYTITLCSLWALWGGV
T3 sequence (Q8WXA8 28-447): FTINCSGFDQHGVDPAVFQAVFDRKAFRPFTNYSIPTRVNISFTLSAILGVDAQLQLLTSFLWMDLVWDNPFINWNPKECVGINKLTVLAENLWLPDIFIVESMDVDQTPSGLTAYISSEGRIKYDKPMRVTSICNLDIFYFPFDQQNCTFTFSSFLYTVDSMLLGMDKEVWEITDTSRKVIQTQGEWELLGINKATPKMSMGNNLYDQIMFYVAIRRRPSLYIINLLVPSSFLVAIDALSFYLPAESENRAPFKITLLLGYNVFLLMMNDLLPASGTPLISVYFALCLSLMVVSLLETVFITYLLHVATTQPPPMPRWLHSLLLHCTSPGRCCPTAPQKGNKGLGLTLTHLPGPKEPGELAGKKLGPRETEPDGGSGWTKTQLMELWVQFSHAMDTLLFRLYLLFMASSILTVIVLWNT
Kind of experiment: Two-electrode voltage clamp, oocytes co-injected with 5-HT3-B and 5-HT3-C. The following applies: 10 μM; 5-HT3-B 3.3 ng, 5-HT3-C 3.35 ng/oocyte. As for the experimental part:
as §1

This is an account of results in patent US7109296B2, “Human 5-HT3-C protein” (Ortho-McNeil Pharmaceutical, Inc., priority 1999, dated 2006).

The structures appear in SMILES notation.

As for `NCCc1c[nH]c2ccc(O)cc12` [5-HT, 5-hydroxytryptamine], the “peak response to 5-HT” value in experiment [1] (10 μM 5-HT, 2-fold more 5-HT3-C cRNA (0.67 ng), control = 5-HT3-A homomeric) is listed as “about 10 % of control”. Besides, the “effect of 5-HT3-C on 5-HT response” value in experiment [1] (1:1 ratio, n=6) is reported as “little effect”. The 5-HT response diminished entry in experiment [1] (1.8×fold 5-HT3-C to 5-HT3-A cRNA concentration, n=3) is “about 20%”. The “peak currents to 5-HT” value in experiment [1] (5-HT3-C and 5-HT3-A(short) at a ratio of 2:1, n=20) is −0.028+/−0.007 nA. Besides, the “sensitivity of oocytes to 5-HT” value in experiment [1] (5-HT3-C:5-HT3-A(short) 10:1) is “essentially insensitive”. Besides, the “Responses to 5-HT” value in experiment [1] (10 LM 5-HT, 5-HT3-C:5-HT3-A(short) 10:1 (3.35 ng : 0.33 ng), n=6) is on record as −0.010+/−0.008 nA. Moreover, the “DiBAC membrane potential response” value in experiment [2] is given as “fast transient depolarization”. For the same compound, the “responsiveness of oocytes to agonist” value in experiment [3] is given as “unresponsive”.
